The values that follow come from article PMC8248901 (Journal of clinical haematology, 2021).

Series [1] has as its target T1, p38γ (Homo sapiens, UniProt P53778).
T1 construct: human recombinant p38α, β, γ, or δ protein kinases (active full-length) were acquired from SignalChem; purchased SignalChem
T1 sequence (P53778 1-367): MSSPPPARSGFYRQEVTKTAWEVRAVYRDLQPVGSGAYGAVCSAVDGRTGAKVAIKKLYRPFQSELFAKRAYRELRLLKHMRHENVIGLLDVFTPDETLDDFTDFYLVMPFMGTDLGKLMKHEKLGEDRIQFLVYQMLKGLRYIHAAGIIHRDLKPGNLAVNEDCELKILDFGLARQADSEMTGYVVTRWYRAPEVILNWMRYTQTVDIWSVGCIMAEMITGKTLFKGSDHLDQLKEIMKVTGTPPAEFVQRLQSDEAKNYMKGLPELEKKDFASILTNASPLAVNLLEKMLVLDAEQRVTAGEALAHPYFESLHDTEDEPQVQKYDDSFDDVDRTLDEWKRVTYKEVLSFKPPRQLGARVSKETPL
Briefly: In vitro kinase assay using ADP-Glo, p38γ. The series is classed as biochemical. The settings on record: for inhibition of p38γ kinase activity (in words): drugs targeting CDK9, Appendix A Figure 7. Here is the method: (§1) Therefore, we attempted to screen p38γ inhibitors from […] by performing an in vitro kinase assay using ADP-Glo as readout for activated p38 isoforms.
(§2) To identify p38γ inhibitors using in vitro kinase assay, a library of kinase inhibitors was screened. The library consists of 244 compounds on three plates (EMD Cat#539744, #539745 and #539746) that are mostly ATP mimics. […] For biochemical screening, in vitro kinase assays were performed using an ADP-Glo kit (Promega, Madison, WI) according to the manufacture’s protocol. […] Briefly, for in vitro assay experiments, human recombinant p38α, β, γ, or δ protein kinases (active full-length) were acquired from SignalChem, and the assay was performed followed protocols from the company. […] Then, ADP-Glo Reagent was incubated in the mixture at room temperature for 40 min, followed by incubation of Kinase Detection Reagent for another 30 min. IC50 values were determined using CalcuSyn software (Biosoft, Cambridge, United Kingdom).
On the technique in general: ADP-Glo first removes unused ATP, then detects ADP through luciferase.

The test system of series [2] is CTCL. Set-up: method as in printed at the place. Particulars: authors' previous studies of F7, no ref printed at the place, read-out: IC50, efficacy in CTCL; cited from earlier work.
Series [3] has as its target T2, p38α (Homo sapiens, UniProt Q16539).
T2 construct: human recombinant p38α, β, γ, or δ protein kinases (active full-length) were acquired from SignalChem; purchased SignalChem
The experiment in a line: In vitro kinase assay using ADP-Glo, p38α. It is filed as biochemical. The settings on record: cell-free. How it is done:
as §1, §2

Series [4] addresses T3, p38δ (Homo sapiens, UniProt O15264).
T3 construct: human recombinant p38α, β, γ, or δ protein kinases (active full-length) were acquired from SignalChem; purchased SignalChem
T3 sequence (O15264 1-365): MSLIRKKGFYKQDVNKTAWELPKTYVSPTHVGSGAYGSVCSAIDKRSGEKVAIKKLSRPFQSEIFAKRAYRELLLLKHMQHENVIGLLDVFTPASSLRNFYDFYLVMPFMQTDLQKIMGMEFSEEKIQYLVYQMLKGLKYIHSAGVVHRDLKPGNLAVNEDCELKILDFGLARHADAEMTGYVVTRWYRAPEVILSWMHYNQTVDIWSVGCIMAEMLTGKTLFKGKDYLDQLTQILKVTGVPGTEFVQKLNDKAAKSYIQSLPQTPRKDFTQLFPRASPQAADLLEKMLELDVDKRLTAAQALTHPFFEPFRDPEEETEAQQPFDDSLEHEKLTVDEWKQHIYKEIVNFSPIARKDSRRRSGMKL
Briefly: In vitro kinase assay using ADP-Glo, p38δ. The series is classed as biochemical. Particulars: cell-free. How it is done: as §1, §2

Series [5] concerns Hut78 CTCL cells. The experiment in a line: cells. It is filed as cell-based. Particulars: Homo sapiens. Here is the method: Cell viability was calculated by diluting cell suspensions 1:1 in 0.4% Trypan Blue solution (Sigma, St. Louis, MO) and counting the number of viable cells using a TC20™ automated cell counter (Bio-Rad, Irvine, CA) which automatically excludes the number of non-viable cells stained with trypan blue per total cells. CellTiterGlo Cell Viability Assay (Promega) method was used as described previously. All data points are an average of triplicate experiments.
CellTiterGlo Cell Viability Assay (Promega) was used to measure viability of Hut78 CTCL cells. […] using an automated BMG PHERAstar plate reader (BMG Labtech, Ortenberg, Germany). IC50 values were determined using CalcuSyn software. All experiments were repeated in three independent experiments and data represented are the average of triplicate experiments.

For series [6], the system named is CTCL. The experiment in a line: Efficacy in CTCL (IC50s quoted in the discussion). The series is classed as cell-based.
For series [7], the system named is relapsed or refractory mantle cell lymphoma (MCL) and diffuse large B-cell lymphoma (DLBCL). Set-up: method as in NCT00445341. Particulars: flavopiridol, ref NCT00445341, cited from earlier work.
Series [8] deals with lymphoma or multiple myeloma. Also on record: method as in NCT00112723. Particulars: flavopiridol, trial terminated (administratively complete); ref NCT00112723; cited from earlier work.
The subject of series [9] is previously treated chronic lymphocytic leukemia or lymphocytic lymphoma. Also on record: method as in NCT00058240. Particulars: ref NCT00058240, cited from earlier work.
The test system of series [10] is refractory metastatic pancreatic cancer. Set-up: method as in NCT00331682. The settings on record: docetaxel followed by flavopiridol; ref NCT00331682; cited from earlier work.
The test system of series [11] is advanced ovarian epithelial cancer or primary peritoneal cancer. Set-up: method as in NCT00083122. Particulars: cisplatin together with flavopiridol, ref NCT00083122, cited from earlier work.
The subject of series [12] is advanced stomach or gastro-esophageal junction cancer. Set-up: method as in NCT00991952. Particulars: irinotecan hydrochloride with or without alvocidib; ref NCT00991952; cited from earlier work.
The subject of series [13] is newly diagnosed acute myeloid leukemia. Also on record: method as in NCT00407966. The settings on record: alvocidib together with cytarabine and mitoxantrone; ref NCT00407966; cited from earlier work.
For series [14] the test system is unchanged. Also on record: method as in NCT01349972. Particulars: alvocidib, cytarabine, and mitoxantrone hydrochloride; ref NCT01349972; cited from earlier work.
For series [15] the test system is unchanged. Also on record: method as in NCT00795002. The settings on record: ref NCT00795002, cited from earlier work.
Series [16] has as its system relapsed or refractory acute myeloid leukemia. Also on record: method as in NCT00634244. Particulars: combination chemotherapy regimen, not given; ref NCT00634244; cited from earlier work.
For series [17], the system named is Hut78 cells. The experiment in a line: Combination treatment of FVP and niclosamide, MTS, CI by CompuSyn. The series is classed as cell-based. Particulars: 72 hours.
Setting [18] is: HuT78, read-out: Cytotoxicity IC50, Hut78 CTCL cells.
Where [19] appears, read: arm 1, alvocidib with cytarabine and mitoxantrone.
Setting [20] is: arm 2, alvocidib with cytarabine and mitoxantrone.

The structures appear in SMILES notation. pIC50: −log10 of the molar value. Where two headings read alike, the source gives them in different places. Some results are limits rather than exact numbers.

T2 sequence (Q16539 whole entry): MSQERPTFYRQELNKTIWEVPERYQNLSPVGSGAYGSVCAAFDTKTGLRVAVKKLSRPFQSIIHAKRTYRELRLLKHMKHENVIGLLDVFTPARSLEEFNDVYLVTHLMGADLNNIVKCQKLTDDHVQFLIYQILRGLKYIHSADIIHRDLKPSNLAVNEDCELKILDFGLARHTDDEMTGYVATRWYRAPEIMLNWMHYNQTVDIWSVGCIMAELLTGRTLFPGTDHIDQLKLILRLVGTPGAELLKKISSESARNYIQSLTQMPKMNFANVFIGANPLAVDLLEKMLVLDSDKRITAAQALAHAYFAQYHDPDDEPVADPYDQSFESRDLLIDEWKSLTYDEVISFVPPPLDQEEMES

What is called pIC50 is the negative decadic logarithm of the IC50, by convention in mol/L. Consider `Cc1ccc([N+](=O)[O-])cc1S(=O)(=O)N(C)/N=C/c1cnc2ccc(Br)cn12` [F7], for which the “inhibition of p38γ kinase activity (in words)” value in series [1] was “inhibit p38γ kinase activity”. For the same molecule, the pIC50 in series [2] is 7.48 to 7.54.

In the case of `CN1CC[C@H](c2c(O)cc(O)c3c(=O)cc(-c4ccccc4Cl)oc23)[C@H](O)C1` [FVP, Flavopiridol], the pIC50 in [3] was 5.87; in series [4], 6.35; in [5] (setting [18]), 7.03; in series [5] (HuT78, read-out: Cytotoxicity IC50, Hut78 cells, abstract), greater than 7.00; in series [6], 6.92. Also, the serious adverse events is on record as 14/28 in [7] (patients affected/total); 1/16 in series [9] (highest dose group); 11/42 in [9] (lower dose group); 9/9 in [10]; 23/45 in [11]; 6/13 in series [12]. Besides, the serious adverse events in series [13] is 19/45; in [14], 53/114. Also, the partial response in [7] (patients responding/evaluated) was 2/26; in series [8] it was 6/43 partial response; in [12] it was 1/13. In addition, the complete response result is reported as “no complete response” in series [7]; 1 in [11] (out of 45 patients); 76/109 in series [14]; 24/37 in series [15] (setting [19]); 29/37 in [15] (setting [20]). In addition, the ORR in [9] (flavopiridol) was 21/52. Moreover, the median overall survival in series [10] was 4.2 months. In addition, the “median time to disease progression” value in [10] is 8 weeks. The stable disease in [10] is listed as 3/9; in series [12], 4/13. Further, the partial responses in [11] (out of 45 patients) is given as 8. In [11], the “Median OS” value is 17.5 months. Further, the “median time to progression” value in series [11] is reported as 4.3 months. For the same molecule, the Serious adverse event in series [15] (setting [19]) is 8/39; in series [15] (setting [20]), 8/39; in series [16], 36/36. For the same molecule, the complete remission in series [16] is listed as 10/36.

Consider `O=c1c(O)c(-c2cc(O)c(O)c(O)c2)oc2cc(O)cc(O)c12` [Myricetin], for which the pIC50 in series [1] (cell-free, ADP-Glo) is 5.80; in series [5] (setting [18]) it was 4.72. In addition, in series [4], the “targets p38δ isoform (in words)” value is reported as “targets three isoforms except p38δ”.

Regarding `CN1CCC(c2c(O)cc(O)c3c(=O)cc(-c4ccccc4Cl)oc23)C1CO` (centres unmarked) [P276-00], the “inhibition of p38γ kinase activity (in words)” value in [1] is listed as “inhibit p38γ kinase activity”.

Regarding `O=C(Nc1ccc([N+](=O)[O-])cc1Cl)c1cc(Cl)ccc1O` [niclosamide], the results for the CI in series [17] (FVP 60.0 nM + Nic 0.2 μM (200 nM)) and in series [17] (FVP 240.0 nM + Nic 0.2 μM (200 nM)) were 0.6 and 0.7, respectively.
